Data reported in patent US8716292B2, “Riminophenazines with 2-(heteroaryl)amino substituents and their anti-microbial activity” (priority 2010, dated 2014).
In brackets after ≈: the same amount, converted by molar mass.

test system: Mycobacterium tuberculosis H37Rv strains; assay: In vitro assay for antimicrobial susceptibility (microplate Alamar blue MIC); assay type: cell-based; conditions: Mycobacterium tuberculosis, H37RV, 7H9, Alamar blue, inhibition ≧90%; read-out: MIC (μg/mL) against H37Rv

Structure (SMILES) | MIC [µg/mL]
COC1CCC(/N=c2\cc3n(-c4ccc(F)c(F)c4)c4ccccc4nc-3cc2Nc2ncccn2)CC1 (stereo not drawn) [TBI-1433, 5-(3,4-Difluorophenyl)-3-(4-methoxycyclohexyl)imino-2-(pyrimidin-2-yl)amino-3,5-dihydrophenazine] | 0.086 (≈ 0.168 µM)

same assay, conditions: Mycobacterium tuberculosis, H37RV, in vitro, Mycobacterium tuberculosis H37Rv strains; read-out: MIC (μg/mL) against H37Rv

Structure (SMILES) | MIC [µg/mL]
Cc1ccc(Nc2cc3nc4ccccc4n(-c4ccc(F)cc4)c-3c/c2=N\C2CCN(CC(C)C)CC2)cn1 [TBI-904, 5-(4-Fluorophenyl)-3-(N-isobutyl-4-piperidyl)imino-2-(6-methyl-3-pyridyl)amino-3,5-dihydrophenazine] | 0.016 (≈ 0.0299 µM)
Cc1ncccc1Nc1cc2nc3ccccc3n(-c3ccc(F)cc3)c-2c/c1=N\C1CCC(O)CC1 (stereo not drawn) [TBI-1015, 5-(4-Fluorophenyl)-3-(4-hydroxycyclohexyl)imino-2-(2-methyl-3-pyridyl)amino-3,5-dihydrophenazine] | 0.387 (≈ 0.784 µM)
Cc1ccc(-n2c3c/c(=N\C4CCN(C)CC4)c(Nc4cccnc4)cc-3nc3ccccc32)cc1 [TBI-304, 5-(4-Methylphenyl)-3-(N-methyl-4-piperidyl)imino-2-(3-pyridinyl)amino-3,5-dihydro-phenazine] | 0.25 (≈ 0.527 µM)
Cc1ccc(Nc2cc3nc4ccc(F)cc4n(-c4ccc(Cl)c(Cl)c4)c-3c/c2=N\C(C)C)cn1 [TBI-896, 7-Fluoro-5-(3,4-dichlorophenyl)-3-(1-methylethyl)imino-2-(6-methyl-3-pyridyl)amino-3,5-dihydrophenazine] | 0.25 (≈ 0.494 µM)
COc1ncccc1Nc1cc2nc3cc(F)ccc3n(-c3ccc(Cl)cc3)c-2c/c1=N\C1CC1 [TBI-859, 8-Fluoro-5-(4-chlorophenyl)-3-cyclopropylimino-2-(2-methoxy-3-pyridyl)amino-3,5-dihydrophenazine] | 0.015 (≈ 0.0309 µM)
COc1ccc2nc3cc(Nc4ccc(C)nc4)/c(=N/C4CC4)cc-3n(-c3ccc(Cl)cc3)c2c1 [TBI-868, 7-Methoxy-5-(4-chlorophenyl)-3-cyclopropylimino-2-(6-methyl-3-pyridyl)amino-3,5-dihydrophenazine] | 0.028 (≈ 0.0581 µM)
COc1ncccc1Nc1cc2nc3cc(F)ccc3n(-c3ccc(Cl)cc3)c-2c/c1=N\C1CCOCC1 [TBI-937, 8-Fluoro-5-(4-chlorophenyl)-3-(4-tetrahydropyranyl)imino-2-(2-methoxy-3-pyridyl)amino-3,5-dihydrophenazine] | 0.125 (≈ 0.236 µM)
CC(C)/N=c1\cc2n(-c3ccc(Cl)c(Cl)c3)c3ccccc3nc-2cc1Nc1cccnc1 [TBI-336, 5-(3,4-Dichlorophenyl)-3-(1-methylethyl)imino-2-(3-pyridyl)amino-3,5-dihydrophenazine] | 0.055 (≈ 0.116 µM)
COc1ncccc1Nc1cc2nc3ccccc3n(-c3ccccc3)c-2c/c1=N\C1CCN(CC(C)C)CC1 [TBI-064, 5-Phenyl-3-(N-isobutyl-4-piperidyl)imino-2-(2-methoxy-3-pyridyl)amino-3,5-dihydrophenazine] | 0.057 (≈ 0.107 µM)
COC1CCC(/N=c2\cc3n(-c4ccc(F)cc4)c4ccccc4nc-3cc2Nc2cncc(C)c2)CC1 (stereo not drawn) [TBI-1026] | 0.121 (≈ 0.238 µM)
CC(C)/N=c1\cc2n(-c3cccc(Cl)c3)c3ccccc3nc-2cc1Nc1cccnc1 [TBI-810, 5-(3-Chlorophenyl)-3-(1-methylethyl)imino-2-(3-pyridyl)amino-3,5-dihydrophenazine] | 0.103 (≈ 0.234 µM)
Cc1ccc(-n2c3c/c(=N\C(C)C)c(Nc4cncc(C)c4)cc-3nc3ccccc32)cc1 [TBI-327, 5-(4-Methylphenyl)-3-(1-methylethyl)imino-2-(5-methyl-3-pyridyl)amino-3,5-dihydrophenazine] | 0.109 (≈ 0.251 µM)
COc1ncccc1Nc1cc2nc3ccccc3n(-c3ccccc3)c-2c/c1=N\CCN1CCOCC1 [TBI-065, 5-Phenyl-3-(2-morpholinoethyl)imino-2-(2-methoxy-3-pyridyl)amino-3,5-dihydrophenazine] | 0.08 (≈ 0.158 µM)
Cc1ccc(-n2c3c/c(=N\C4CC4)c(Nc4cncc(C)c4)cc-3nc3ccccc32)cc1 [TBI-342, 5-(4-Methylphenyl)-3-cyclopropylimino-2-(5-methyl-3-pyridyl)amino-3,5-dihydrophenazine] | 0.022 (≈ 0.051 µM)
